According to patent US20140348807A1, “PROCESS FOR THE PREPARATION OF A BIOMASS COMPRISING PLANTARICIN AND USES THEREOF IN MEDICAL FIELD” (GIULIANI S.p.A., priority 2010, published 2014):
Read-outs that look alike come from different tables or passages of the source. Ends that are not written are not given here.

Key:
Caco-2/TC7 cells [1] = test: Caco-2/TC7 cell viability, Neutral Red absorption assay; assay type: cell-based, Human; conditions: for viability of Caco-2/TC7 cells (Neutral Red) vs DMEM negative control: 2.5 μg/ml, incubation 24-72 hours; for negative effect of IFN-γ on Caco-2/TC7 viability under simultaneous plantaricin A treatment: IFN-γ 1000 U/ml + plantaricin A 2.5 μg/ml
Description: Human Caco-2/TC7 cells (TC7 clone) have been cultured in Dulbecco medium (DMEM), added with calf serum (10%), not essential amino acids (1%), gentamycin/streptomycin (50 μg/ml), glutamine (2 mM) and 4-2-hydroxyethyl-1-piperazinil-etansulfonic acid (1%) (Di Cagno et al., 2010. Quorum sensing in sourdough Lactobacillus plantarum DC400: induction of plantaricin A (PlnA) under co-cultivation with other lactic acid bacteria and effect of PlnA on bacterial and Caco-2 cells. Proteomics in press). Cell viability has been determined with absorption assay using Neutral Red dye (Balls et al., 1987. Approaches to validation alternative methods in toxicology. In: Goldber A. M. (Ed). N.Y. Academic Press pp. 45-58). After 24-72 hour treatment with various preparations, cells have been washed with PBS buffer and incubated for 4 hours at 37° C. with a Neutral Red solution (33 mg/I). Successively, the cells have been again washed with PBS buffer and treated with lysis solution (50% ethanol in 1% acetic acid containing water). Plate reading has been carried out using Novapath plate reader (Biorad, Hercules, Calif.). Di Cagno et al., 2010. Quorum sensing in sourdough Lactobacillus plantarum DC400: induction of plantaricin A (PlnA) under co-cultivation conditions with other lactic acid bacteria and effect of PlnA on bacterial and Caco-2 cells. Proteomics in press).

Caco-2/TC7 cells [2] = test: TEER of Caco-2/TC7 cell layer; assay type: cell-based, Human; conditions: for negative effect of IFN-γ on Caco-2/TC7 TEER with added plantaricin A: IFN-γ 1000 U/ml + plantaricin A 2.5 μg/ml
Description: For TEER determination Caco-2/TC7 cells have been inoculated (7.5×10^4 cells/ml) in a 24 well plate and a polyethylene filter (0.4 μm pore). Before the treatment, the cells have been incubated for 21 days at 37° C. Treatments with various preparations have been carried out for 18, 24 and 48 hours. Integrity of the cellular layer therefore has been determined by means of TEER determination.

[3] = test system: human NCTC 2544 keratinocyte cell line; assay type: cell-based; conditions: 0.1 μg/ml
Description: The used cell line is a human NCTC 2544 keratinocyte cell line (Perry, V. P., Sanford, K. K., Evans, V. J., Hyatt, G. W., Earle, W. R., 1957. Establishment of clones of epithelial cells from human skin. J Natl Cancer Inst. 18 (5): 709-717) cultured in sterile flasks, incubated at 37° C. in humid atmosphere at 5% CO2 in MEM (Minimum Essential Medium) culture medium added with 10% bovine calf serum (FBS), 2 mM L-glutamine, 1% not essential amino acids, in the presence of 1% penicillin and streptomycin. Cells grow in vitro adhering to culture plate surface as a monolayer.
The experiment firstly involves the development of confluent cell monolayer. Successively the cut is carried out and the generated “gap” is observed using microscope as cells gradually moving repair the damage.
NCTC 2544 cells are plated and cultured at 37° C., with 5% CO2 for 24 hours.
After 24 hours complete growth medium is replaced with serum free medium to avoid the serum effect on cell proliferation and cells are incubated for further 24 hours at 37° C., 5% CO2.
After 24 hours the cell monolayer is mechanically damaged by mild 200 μl pipette tip brushing tracking a ˜1 mm wide horizontal line. Then the monolayer is washed and after addition of substances to be tested, the plates are incubated at 37° C., 5% CO2 for 72 hours.
the effect of the substances on cell motility is evaluated using phase contrast reverse microscope, acquiring images at various opportunely selected analysis times.
the damage remedy is determined measuring the clear area between the cut two migration fronts at 0, 4, 8, 12, 24, 48, 72 hours after the cut, using an image processing software (Leica application Suite).
After the cut on the cellular monolayer has been carried out using a 200 μl pipette tip and the cells within the gap between two cut lines completely removed, said cells are treated with synthetic and co-culture deriving Plantaricin at the following concentrations: 0.1-1-10 μg/ml. Also positive and negative controls (connectivine at 100 μg/ml) have been duplicate tested.
Images on the same cut area have been acquired at time 0 and after 4, 8, 12, 24, 48 and 72 hours, to monitor the cell migration in the cut area.

[4] = test system: Cultured human keratinocytes; test: Wound healing assay on cultured human keratinocyte monolayer (Example 2); assay type: cell-based; conditions: 1 hour incubation with stimulus (Plantaricin A 2.5 μg/ml), then 24 hours
Description: Cultured human keratinocytes have been incubated with Plantaricin A (2.5 μg/ml) or Plantaricin A containing biomass for 1 hour.
At the end of the incubation, the cells have been washed and culture medium restored.
The test consists of carrying out a mechanical interruption in the continuity of the cellular monolayer in order the treatment effect in favouring or not the keratinocyte ability to migrate beyond the damage border and therefore “heal the lesion” to be evaluated.
To this end the keratinocyte monolayer, treated as above described, was incubated over aditional 24 hours after stimulus application and then fixed and stained using ematoxylin/eosin staining. Images have been observed with light microscope using 5× objective.
For each image maximum cell migration limits and distance or gap there between have been detected and calculated, respectively (FIG. 9-10).

| Substance | viability of Caco-2/TC7 cells (Neutral Red) vs DMEM negative control (Caco-2/TC7 cells [1]) | negative effect of IFN-γ on Caco-2/TC7 viability under simultaneous plantaricin A treatment (Caco-2/TC7 cells [1]) | TEER values for Caco-2/TC7 cells (Caco-2/TC7 cells [2]; 2.5 μg/ml, 24 and 48 hours, vs DMEM) | negative effect of IFN-γ on Caco-2/TC7 TEER with added plantaricin A (Caco-2/TC7 cells [2]) | percentage of migrated cells in comparison to the positive control ([3]; 1st of six time values (4 h)) | percentage of migrated cells in comparison to the positive control ([3]; 2nd of six time values (8 h)) | percentage of migrated cells in comparison to the positive control ([3]; 3rd of six time values (12 h)) | percentage of migrated cells in comparison to the positive control ([3]; 4th of six time values (24 h)) | percentage of migrated cells in comparison to the positive control ([3]; 5th of six time values (48 h)) | percentage of migrated cells in comparison to the positive control ([3]; 6th of six time values (72 h)) | gap between the wound margins vs control cells [4] |
| --- | --- | --- | --- | --- | --- | --- | --- | --- | --- | --- | --- |
| KSSAYSLQMGATAIKQVKKLFKKWGW [purified plantaricin A] | remarkably increased | completely eliminated | remarkable increase | eliminated also in this case the negative effects | – | – | – | – | – | – | – |
| KSSAYSLQMGATAIKQVKKLFKKWGW [chemically synthesized plantaricin A] | Same result | completely eliminated | – | eliminated also in this case the negative effects | 158.30% | 115.15% | 124.32% | 141.82% | 141.91% | 128.51% | – |
| hyaluronic acid | – | – | – | – | – | – | – | – | – | – | lesion gap is narrower than for not treated cells |
